{
  "source": "patent US20210379197A1",
  "about": "“DUAL-TARGETING LIPID-POLYMER HYBRID NANOPARTICLES” (IUCF-HYU (INDUSTRY-UNIVERSITY COOPERATION FOUNDATION …, priority 2020, published 2021)",
  "key": {"[1]": {"system": "HO1", "assay": "Daunorubicin-responsive HO1 upregulation, THP-1 (Western blot)", "assay_type": "cell-based, human", "settings": "THP-1, various concentrations of DNR, 24 h (FIG. 9a)", "description": "(§1) THP-1 and U937 cells (4×10^5 cells mL^−1) were seeded and cultured in complete medium with various concentrations of DNR for 24 h. The cells were lysed using RIPA buffer and total protein was used for immunodetection by using anti-human HO1 and kactin antibodies (Cell Signaling Technology, Danvers, Mass., USA)."}, "[2]": {"system": "HO1", "assay": "Daunorubicin-responsive HO1 upregulation, U937 (Western blot)", "assay_type": "cell-based, human", "settings": "U937, various concentrations of DNR, 24 h (FIG. 9a)", "description": "as §1"}},
  "data": [
    {"compound": "COc1cccc2c1C(=O)c1c(O)c3c(c(O)c1C2=O)C[C@@](O)(C(C)=O)C[C@@H]3O[C@H]1C[C@H](N)[C@H](O)[C@H](C)O1", "note": "[DNR, daunorubicin]", "values": [
      {"measurement": "HO1 expression", "setting": "[1]", "result": "overexpressed"},
      {"measurement": "HO1 expression", "setting": "[2]", "result": "overexpressed"}
    ]}
  ]
}
